Reference: PMC5630632, “Assessing inhibitors of mutant isocitrate dehydrogenase using a suite of pre-clinical discovery assays” (Scientific Reports, 2017)
Residue numbers refer to the chain shown, from its start. ≈ marks a conversion by molar mass, not a printed value. Like-named read-outs stand apart in the source and are kept apart here. Blank lines part the entries; values can stand above or below the molecule they belong to.

How the values were obtained:
RBE (R132S) cells = assay: 2-HG production, monolayer (2D), mass spectrometry, RBE; format: cell-based; conditions: Homo sapiens, mass spec
Method: (§1) (Supplementary Table 2). Inhibition of the target was assessed by quantitative measurement of 2-HG levels in extracellular media of monolayer (or 2-dimentional, 2D) cultures following incubation (48 hrs) with inhibitors. […]
(§2) treated 96-well plates (Corning) at a density of 8000 cells/well/100 μL . Plates were sealed with gas permeable membranes (Research Products International Corp.) and incubated at 37°C, 5% CO2, 90% RH for 24 hr. Growth media was subsequently aspirated and replaced with 100 μL of a solution of growth media cont aining either vehicle DMSO or indicated mIDH1 inhibitor. Each compound was tested as an 8-point dilution series ranging from 5 μM to 2.3 nM. After 48 hr treatment, 75 μL of the exhausted media was collected and snap frozen on dry ice. Samples were analyzed by LC-MS for 2- HG concentrations using Rapidfire / Mass Spectrometry (Quintara) (4) . Remaining cells were assessed for viability by adding 100 μL of fresh media and 50 μL of CellTiter-Glo reagent (Promega) as per manufacturer instructions. Luminescence was read using a Vi ewLux High-throu ghpu t CCD imager (PerkinElmer) equipped with clear filters.

JJ012 (R132G) cells = assay: 2-HG production, monolayer (2D), mass spectrometry, JJ012; format: cell-based; conditions: Homo sapiens, mass spec
Method: as §1, §2

[1] = test system: JJ012 (R132G) 3D cellular spheroids; assay: 2-HG production, spheroids (3D), JJ012; format: cell-based; conditions: Homo sapiens; 3D spheroid, mass spec
Source text: (§3) To evaluate the effect of mIDH1 inhibitors in more relevant models of solid tumors, we adapted a 3-dimensional (3D) multicellular tumor spheroid assay to monitor spheroid formation and 2-HG production. Small molecules can have diminished efficacy in multicellular tumor spheroid models due to limited penetration and the heterogeneous nature of the 3D tumor spheroid[39],[40]. We began by testing the 6 aforementioned cell lines for their ability to form spheroids in ultra-low attachment plates at varying cell concentrations (1000–5000 cells/well). […] Overall, spheroids produced less extracellular 2-HG than cells cultured in monolayer (Fig. 7B).
(§4) Using these simple 3D models of solid tumors, we assessed the ability of inhibitors to reduce 2-HG production.
(§5) 2-HG production: Cells grown as spheroids (3D)
(§6) (RBE) cells/well/150 μ L to form spheroids. Of note, we were not able to obtain spheroids using SNU1079 cells. Plates were sealed with gas permeable membranes, centrifuged at 40 rcf for 1 min, and incubated at 37°C, 5% CO2, 90% RH for 96 (HT108 0, U87 and JJ01 2) or 4 8 (RBE) h r. Cells were washed (by remo ving 10 0 μL of exhausted media and re placing it with 100 μL of growth media, twice) and treated with 50 μL of a solution of media containing the indicated compounds. Each compound was tested as an 8-point dilution series ranging from 5 μM to 2.3 nM.
(§7) After 96 hr of t reatment, 100 μL of the exhausted media was collected and snap frozen on dry ice. Samples were analyzed by LC -MS for 2- HG concentrations using Rapidfire /Mass Spectrometry (Quintara) ( 4) . Plates were first imaged on the Celigo Imaging Cytometer (Ne xcelom Bioscience) to quantify area of each spheroid. Cell viability was subsequently measured using the CellTiter-Glo assay with some modifications: 50 μL of a solution of CellTiter-Glo reagent containing a final concentration of 0.025 % Trypsin (Thermo Sci entific) was added to each well and plates were shaken at 500 rpm for 30 min before reading.

[2] = test system: RBE (R132S) 3D cellular spheroids; assay: 2-HG production, spheroids (3D), RBE; format: cell-based; conditions: Homo sapiens; 3D spheroid, mass spec
Source text: as §3, §4, §5, §6, §7

IDH2 WT = molecular target: T1, IDH2 WT (Homo sapiens, UniProt P48735); assay: Wild type IDH2 enzyme assay, diaphorase/resazurin coupled
T1 sequence (P48735 40-452): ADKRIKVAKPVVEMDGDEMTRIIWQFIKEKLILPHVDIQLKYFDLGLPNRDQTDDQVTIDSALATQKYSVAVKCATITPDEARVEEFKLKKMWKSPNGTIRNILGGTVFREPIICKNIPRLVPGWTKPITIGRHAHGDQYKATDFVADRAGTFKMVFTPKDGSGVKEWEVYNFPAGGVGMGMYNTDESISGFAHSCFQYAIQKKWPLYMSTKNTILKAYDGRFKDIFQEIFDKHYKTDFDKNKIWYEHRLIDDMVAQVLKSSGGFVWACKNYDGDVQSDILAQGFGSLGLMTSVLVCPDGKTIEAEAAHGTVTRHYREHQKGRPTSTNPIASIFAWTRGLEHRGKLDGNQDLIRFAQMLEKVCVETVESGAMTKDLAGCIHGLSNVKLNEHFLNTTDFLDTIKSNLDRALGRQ

R172Q mIDH2 = molecular target: T2, R172Q mIDH2 (Homo sapiens, UniProt P48735, R172Q); assay: mIDH2-R172Q enzyme assay (Reaction Biology), diaphorase/resazurin coupled; conditions: for Emax: read-out: IDH2 R172Q % EMax
T2 sequence (P48735 40-452 R172Q): T1 sequence (P48735 40-452) with R133Q

[3] = Human plasma protein binding (rapid equilibrium dialysis, Cyprotex); format: in vitro ADME; conditions: for fraction unbound at 4 h, 5 µM: human, plasma, human plasma
IDH1 WT = IDH1 WT (Homo sapiens, UniProt O75874); assay: Wild type IDH1 enzyme assay, diaphorase/resazurin coupled; conditions: for Emax: read-out: IDH1 WT % EMax
[4] = High-throughput kinetic solubility (µSOL), pH 7.4; format: physicochemical; conditions: aqueous solution pH 7.4, pH 7.4, aqueous buffer, kinetic from dmso stock; read-out: HT Kinetic Solubility, Solubility
Method: High-Throughput kinetic solubility test assay
Pion’s patented µSOL assay for kinetic solubility determination was used. In this assay, the classical saturation shake- flask solub ility method was adapted to a 96-well microtiter plate format and a co-solvent method with n- propanol as the […] was utilized. Test compounds were prepared in 10 mM DMSO solutions (45 µ L), and diluted with the co-solve nt to a final drug conce ntration of […]
Samples are incubated at room temperature for 6 hrs t o achieve equilibrium. The samples were then filtered to remove any precipitate formed. The concentrat ion of the compound in the filtrate was measured by UV ab sorbance. […]
used for quantitation of unknown drug concent ration in filtrate. Spectroscopically pure 1- Propanol was used as acosolvent to suppress precipitation in the reference

[5] = High-throughput PAMPA (GIT), pH 7.4; format: in vitro ADME; conditions: read-out: HT PAMPA Permeability
Source text: In Vitro Physicochemical and Drug Metabolism Studies:
High-Throughput PAMPA assay
The stirring double- sin k PAMPA method patented by pION Inc. (Billeri ca, MA) was employed to determine the permeability of compounds via PAMPA passive diffusion. The PAMPA lipid membrane consisted of an artificial membrane of a proprietary lipid mixture and dodecane (Pion Inc.), optimized to predict gastrointestinal tract (GIT) passive diffusion permeability, was immobilized on a plastic matrix of a 96 well “donor” filter plate placed above a 96 well “a cceptor” plate. A pH 7.4 solution was used in both donor and acceptor wells. The test articles, stocked in 10 mM DMSO solutions, were diluted to 0.05 mM in aqueous buffer (pH 7.4) , and the concentration of DMSO was 0.5% in the final solution. During the 30-min permeation period at room temperature, the test samples in the donor compartment were stirred using the Gutbox te chnology (Pion Inc.) to reduce the unstirred water layer. The test article concentrations in the donor and acceptor compartments were measured using an UV plate reader (Nano Quant, Infinite 200 […]
PRO, Tecan Inc., Männedorf, Switzerland). Permeability calculations were performed using Pion Inc. software and were expressed in units of 10-6 cm/s. […]

[6] = Microsomal metabolic stability, mouse; format: in vitro ADME; conditions: pH 7.4; mouse liver microsomes
[7] = Microsomal metabolic stability, rat; format: in vitro ADME; conditions: pH 7.4; rat liver microsomes
[8] = Microsomal metabolic stability, human; format: in vitro ADME; conditions: pH 7.4; human liver microsomes
hERG channel = molecular target: T3, hERG channel (Homo sapiens, UniProt Q12809); assay: hERG FluxOR-based thallium flux assay; format: cell-based; conditions: In Vitro Toxicity
T3 construct: host or cells: U2OS cells (ATCC)

in vitro = conditions: human, Caco-2
[9] = Human hepatocyte cytotoxicity (CellTiter-Glo, 72 hr); conditions: both, human, cryopreserved human hepatocytes
human hepatocytes = assay: as above; conditions: Homo sapiens, Hepatocyte, read-out: Human Hepatocytes EC50

Chain of IDH1 WT (O75874 whole entry): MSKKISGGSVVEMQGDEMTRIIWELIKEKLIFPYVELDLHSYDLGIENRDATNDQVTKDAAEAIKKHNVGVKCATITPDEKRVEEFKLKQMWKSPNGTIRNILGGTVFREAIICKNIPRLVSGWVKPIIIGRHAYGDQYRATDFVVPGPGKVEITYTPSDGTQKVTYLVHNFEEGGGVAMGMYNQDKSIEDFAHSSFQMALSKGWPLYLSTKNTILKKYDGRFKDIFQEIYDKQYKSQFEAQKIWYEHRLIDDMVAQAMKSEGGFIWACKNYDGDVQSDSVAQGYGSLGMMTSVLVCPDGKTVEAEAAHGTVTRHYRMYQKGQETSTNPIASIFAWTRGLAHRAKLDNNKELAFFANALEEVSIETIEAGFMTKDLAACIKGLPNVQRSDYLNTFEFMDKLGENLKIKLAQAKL
T3 sequence (Q12809 whole entry): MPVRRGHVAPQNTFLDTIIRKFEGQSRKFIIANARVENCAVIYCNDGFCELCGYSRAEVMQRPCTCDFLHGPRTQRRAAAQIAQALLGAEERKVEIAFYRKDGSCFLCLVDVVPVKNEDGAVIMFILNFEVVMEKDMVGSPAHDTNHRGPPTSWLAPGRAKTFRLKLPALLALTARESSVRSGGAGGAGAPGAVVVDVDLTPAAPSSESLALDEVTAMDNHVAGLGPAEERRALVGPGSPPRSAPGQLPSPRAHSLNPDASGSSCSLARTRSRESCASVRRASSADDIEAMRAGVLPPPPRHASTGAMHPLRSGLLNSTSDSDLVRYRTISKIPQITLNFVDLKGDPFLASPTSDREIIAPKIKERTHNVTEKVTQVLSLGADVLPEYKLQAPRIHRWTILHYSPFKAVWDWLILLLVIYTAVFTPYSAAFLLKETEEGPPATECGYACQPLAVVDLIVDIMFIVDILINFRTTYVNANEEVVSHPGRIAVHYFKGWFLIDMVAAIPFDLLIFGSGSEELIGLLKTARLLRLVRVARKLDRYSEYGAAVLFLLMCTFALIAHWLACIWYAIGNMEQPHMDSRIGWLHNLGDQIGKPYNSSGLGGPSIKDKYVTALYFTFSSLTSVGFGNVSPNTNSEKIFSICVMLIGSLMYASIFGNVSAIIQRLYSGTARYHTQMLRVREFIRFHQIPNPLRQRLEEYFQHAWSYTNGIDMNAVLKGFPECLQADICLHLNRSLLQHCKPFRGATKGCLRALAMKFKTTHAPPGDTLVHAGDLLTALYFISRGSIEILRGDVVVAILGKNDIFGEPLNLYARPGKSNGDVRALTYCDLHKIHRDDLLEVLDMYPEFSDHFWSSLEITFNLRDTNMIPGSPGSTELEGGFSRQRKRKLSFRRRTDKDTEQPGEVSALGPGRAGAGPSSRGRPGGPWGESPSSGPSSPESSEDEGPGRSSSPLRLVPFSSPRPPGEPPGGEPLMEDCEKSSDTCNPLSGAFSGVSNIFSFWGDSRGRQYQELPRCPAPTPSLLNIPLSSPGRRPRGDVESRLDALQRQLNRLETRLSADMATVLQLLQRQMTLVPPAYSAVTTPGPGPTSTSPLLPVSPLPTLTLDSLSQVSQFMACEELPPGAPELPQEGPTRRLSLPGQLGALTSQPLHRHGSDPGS

Structure (SMILES): CC(C)[C@H]1COC(=O)N1c1ccnc(N[C@@H](C)c2ccc(CN3CCC(F)(F)CC3)cc2)n1 [Novartis 224]
- Emax (RBE (R132S) cells; read-out: 2D Cellular 2HG Production (Mass Spec) RBE (R132S) % EMax): 109%
- EC50 (RBE (R132S) cells; read-out: 2D Cellular 2HG Production (Mass Spec) RBE (R132S) EC50): 0.221 µM
- Emax (JJ012 (R132G) cells; read-out: 2D Cellular 2HG Production (Mass Spec) JJ012 (R132G) % EMax): 68%
- EC50 (JJ012 (R132G) cells; read-out: 2D Cellular 2HG Production (Mass Spec) JJ012 (R132G) EC50): 0.121 µM
- EC50 [1]: 0.098 µM
- Emax [1]: 87.2%
- EC50 [2]: 0.412 µM
- Emax [2]: 86.3%
- EC50 (IDH2 WT): > 30 µM
- Emax (IDH2 WT; read-out: IDH2 WT % EMax): 19.4 ± 11.4%
- EC50 (R172Q mIDH2): > 30 µM
- Emax (R172Q mIDH2): 3.4%

Structure (SMILES): CC(=O)N1CCN(Cc2ccc([C@H](C)Nc3nccc(N4C(=O)OC[C@@H]4C(C)C)n3)cc2)CC1 [Novartis 556]
- unbound fraction in human plasma ([3]; 5 µM): ~ 10 % unbound
- EC50 (IDH1 WT; IDH1 WT EC50, purified enzyme): 10.5 ± 1.01 µM
- Emax (IDH1 WT): 90 ± 7.4%
- EC50 (IDH2 WT): > 30 µM
- Emax (IDH2 WT; read-out: IDH2 WT % EMax): 20.7 ± 5.4%

- solubility kinetic at 6 h [4]: 0.374 µM (≈ 0.18 µg/mL)
- Papp at 30 min, 0.05 mM [5]: 523 ×10⁻⁶ cm/s
- half-life at 1 µM [6]: 4.6 min
- half-life at 1 µM [7]: 4.5 min
- half-life at 1 µM [8]: 3.1 min
- fraction unbound at 4 h, 5 µM ([3]; read-out: Human Plasma Protein Binding % Bound (converted)): 0.001
- fraction unbound at 4 h, 5 µM ([3]; read-out: Human Plasma Protein Binding % Unbound): 0.00083
- Papp A→B at 2 h, 10 µM (in vitro): 0.85 ×10⁻⁶ cm/s
- Papp B→A at 2 h, 10 µM (in vitro): 12.5 ×10⁻⁶ cm/s
- EC50 (IDH1 WT; IDH1 WT EC50, Biochemical): > 30 µM
- Emax (IDH1 WT): 8.1%
- Emax (IDH2 WT; read-out: IDH2 % EMax): 85.2%
- Emax (R172Q mIDH2): 74.4%
Structure (SMILES): O=C(Nc1cccc(C(F)(F)F)c1)Nc1cc(S(=O)(=O)NC2CC2)ccc1-c1ccsc1 [AGI-6780]
- EC50 (hERG channel): 25.1 µM
- Emax (hERG channel; human, U2OS cells transduced with hERG-BacMam virus): 99.8%
- Emax at 72 h [9]: 108%
- EC50 (human hepatocytes): 21.9 µM
